The text below walks through data of paper PMC5986646.

For series [1], the system named is HCT116/wt cells. Briefly: Cell viability assay (MTT, EZ4U). The format is cell-based, human. As to conditions: mean (± SD) of at least three independent experiments in triplicates.
Series [2] relates to HCT116/dtxA cells. Briefly: Cell viability assay (MTT, EZ4U). The format is cell-based, human. As to conditions: for IC50: n ≥ 3.
In series [3] the test system is HCT116/dtxB cells. Briefly: Cell viability assay (MTT, EZ4U). As to conditions: for IC50: n ≥ 3. The format is cell-based, human.
Series [4] deals with HCT116/dtxE cells. Kind of series: Cell viability assay (MTT, EZ4U). The format is cell-based, human. The conditions noted are these: for IC50: HCT116/dtxE, about one year of selection, MTT, mean (± SD), n ≥ 3; for relative resistance: mean IC50 HCT116/dtxE divided by IC50 HCT116/wt.
Series [5] relates to HCT116/dtxA cells. Briefly: Cell viability, dtxA combined with mevalonate pathway inhibitors, combination index. The format is cell-based, human.
Series [6] relates to parental HCT116. Briefly: Cell viability, dtxA combined with mevalonate pathway inhibitors. As to conditions: parental HCT116, inhibitor with dtxA, 72 h. The format is cell-based, human.
Series [7] relates to MCF7. Described as above. The format is cell-based, human. The conditions noted are these: MCF7, intrinsically low sensitivity, inhibitor with dtxA, 72 h.
The test system of series [8] is BT20. The series is described as above. The format is cell-based, human. As to conditions: BT20, intrinsically low sensitivity, inhibitor with dtxA, 72 h.
The test system of series [9] is HeLa cell derivative. Also on record: method as in PMID 19517454. As to conditions: 18 months selection period of a HeLa cell derivative; cited from earlier work.
Series [10] deals with HCT116/wt cells. Kind of series: Annexin-V/PI staining (apoptosis/necrosis). The conditions noted are these: 48 h, 5 μM dtxA, 2.5 μM dtxB, dtxE around the IC50 value, FACS. The format is cell-based, human.
Series [11] concerns HCT116/wt cells. Kind of series: JC-1 mitochondrial membrane depolarization. The conditions noted are these: parental cells, 48 h, JC-1, FACS. The format is cell-based, human. The procedure:
(§1) Parental and dtx-resistant cells were seeded (1x10^5 cells/well in 6-well plates) and treated on the following day for 48 h with the indicated concentrations of dtxA, dtxB or dtxE. Next, the mitochondrial membrane potential (ΔΨm) was measured. In doing so, cells were detached by trypsinization, centrifuged with 300× g for 5 min at 4°C and stained with the fluorescent dye JC-1 (5,5’,6,6’-tetrachloro-1,1’,3’,3’-tetraethyl-benzimidazolylcarbocyanine iodide) for 10 min at 37°C. FACS analysis was performed according to the manufacturer’s instructions (Mitochondrial Membrane Potential detection Kit; Stratagene, La Jolla, CA, USA). To further compare apoptotic changes in the parental and resistant cells, Annexin V-APC/PI stainings were carried out.

The subject of series [12] is resistant sublines (HCT116/dtxA, HCT116/dtxB, HCT116/dtxE). Briefly: JC-1 mitochondrial membrane depolarization. The format is cell-based, human. The conditions noted are these: each destruxin in its respective resistant subline, 48 h, JC-1, FACS. The procedure: as §1
In series [13] the test system is HCT116/dtxA cells. Briefly: Whole-cell patch clamp, ionophoric activity. The format is cell-based, human. The conditions noted are these: resistant HCT116/dtxA, 20 μM dtxA, whole-cell mode, membrane potential -60 mV, RT. The procedure: (§2) Ionophoric activity of dtxA, dtxB and dtxE was determined by patch clamp experiments, performed as previously described. Briefly, ionic currents were recorded in whole-cell mode at RT. Glass electrodes with a resistance less than 5 MΩ were pulled with a DMZ universal puller and filled with intracellular solution (120 mM CsF, 20 mM CsCl, 5 mM EGTA, 5 mM HEPES; pH 7.4). HCT116/wt or resistant cells were perfused with extracellular solution (140 mM NaCl, 4 mM KCl, 1.8 mM CaCl2, 0.75 mM MgCl2, 5 mM HEPES; pH 7.4) in a 1 mL chamber. After obtaining a whole-cell configuration, cells were allowed to equilibrate for 5 min before recording any currents and then pulsed to -60 mV for 10 sec pulses. Data were filtered at 5 kHz and digitized at 10 kHz by using digidata 1440A. Traces were averaged and subtracted from control recording, in the presence or absence of 20 μM dtxA, dtxB or dtxE, to observe ionophoric activity.
On the technique in general: In patch-clamp work, channel activity is measured electrically.

Series [14] relates to HCT116/wt cells. Briefly: Whole-cell patch clamp, ionophoric activity. As to conditions: parental HCT116/wt, 20 μM dtxA, whole-cell mode, membrane potential -60 mV, RT. The format is cell-based, human. The procedure:
as §2

In series [15] the test system is HCT116/dtxE cells. The conditions noted are these: 10 μM verapamil or 1 μM cyclosporin A with increasing dtxE.
Where [16] appears, read: HCT116/dtxA, about one year of selection, 72 h, MTT, mean (± SD).
Setting [17] is: HCT116/dtxB, about one year of selection, 72 h, MTT, mean (± SD).
Where [18] appears, read: HCT116/dtxA, inhibitor 24 h pretreatment, then dtxA 72 h, statins at concentrations above 2.5 μM, Chou-Talalay, CalcuSyn, CI < 1 synergism.
Setting [19] is: mean IC50 HCT116/dtxA divided by IC50 HCT116/wt.
Where [20] appears, read: mean IC50 HCT116/dtxB divided by IC50 HCT116/wt.

Structures are written as SMILES. Where a name gives a salt, the structure may show the parent alone. Read-outs that look alike come from different tables or passages of the source. Square brackets hold non-standard residues; d marks the D form. Peptide text beside a SMILES is read from it. dLac(3-vinyl) = C=CC[C@@H](O)C(=O)O; dHica = CC(C)C[C@@H](O)C(=O)O; NMeV = CN[C@H](C(=O)O)C(C)C; NMeA = CN[C@@H](C)C(=O)O; βAla = NCCC(=O)O

Regarding `Nc1ccn([C@@H]2O[C@H](CO)[C@@H](O)C2(F)F)c(=O)n1` [Gemcitabin], the IC50 stood at 400 nM in [1] (72 h), 400 nM in [2] (setting [16]), 400 nM in series [3] (setting [17]) and 300 nM in [4] (72 h).

`CC(C)n1c(/C=C/C(O)CC(O)CC(=O)O)c(-c2ccc(F)cc2)c2ccccc21` (stereo not drawn) [fluvastatin, fluvastatin sodium salt hydrate]: the “combination index (CI) in combination with dtxA” value (from here on “combination index (CI)”) in [5] (setting [18]) was “smaller than 1”. Moreover, the “effect on cytotoxic activity of dtxA” value in series [6], in [7] and in series [8] was “augmented” in each case.

`CC(C)[C@H]1OC(=O)[C@H](Cc2ccccc2)N(C)C(=O)[C@@H](C(C)C)OC(=O)[C@H](Cc2ccccc2)N(C)C(=O)[C@@H](C(C)C)OC(=O)[C@H](Cc2ccccc2)N(C)C1=O` [Beauvericin]: the resistance obtained entry in series [9] is reported as “no resistance”.

As to `N.N.[Cl][Pt][Cl]` [Cisplatin], the IC50 in series [1] (72 h) was 4000 nM; in series [2] (setting [16]), 1900 nM; in series [3] (setting [17]), 2200 nM; in series [4] (72 h), 4400 nM.

As to `NC(=S)N/N=C/c1ncccc1N` [Triapin], the half-inhibitory concentration (IC50) in [1] (72 h) came out at 800 nM; in series [2] (setting [16]), 600 nM; in series [3] (setting [17]), 800 nM; in series [4] (72 h), 800 nM.

Turning to `CC[C@H](C)[C@@H]1NC(=O)[C@@H]2CCCN2C(=O)[C@@H](CC(C)C)OC(=O)CCNC(=O)[C@H](C)N(C)C(=O)[C@H](C(C)C)N(C)C1=O` [dtxB, destruxin B] (cyclo([dHica]PI[NMeV][NMeA][βAla])), the relative resistance in series [2] (setting [19]) is given as 18.2 -fold; in series [3] (HCT116/dtxB vs HCT116/wt, month 4 after selection start) it was 4.4 -fold; in series [3] (HCT116/dtxB vs HCT116/wt, month 6 after selection start), 4.2 -fold; in series [3] (HCT116/dtxB vs HCT116/wt, month 8 after selection start) it was > 25 -fold; in series [3] (HCT116/dtxB vs HCT116/wt, month 12 after selection start) it was > 40 -fold; in series [3] (setting [20]), >40 -fold. In [4], the relative resistance was 0.3 -fold. In addition, the IC50 in series [3] (HCT116/dtxB (unsel.), removed from drug selection for one month, 72 h, mean) is greater than 100000 nM; in series [3] (setting [17]), greater than 100000 nM. For the same molecule, the “percentages of early and/or late apoptotic cells” value in series [10] is “markedly and significantly increased”. Moreover, the mitochondrial membrane depolarization entry in [11] is reported as “only observed in parental cells”; in series [12], “no significant increase”.

Turning to `O=P(O)(O)C(O)(Cn1ccnc1)P(=O)(O)O` [zoledronic acid, zoledronic acid monohydrate], the “combination index (CI)” value in [5] is “smaller than 1”. The “effect on cytotoxic activity of dtxA” value in [6], in [7] and in [8] was “augmented” throughout.

Consider `CC[C@H](C)C(=O)O[C@H]1C[C@@H](C)C=C2C=C[C@H](C)[C@H](CC[C@@H]3C[C@@H](O)CC(=O)O3)[C@H]21` [lovastatin, lovastatin (Mevinolin)], for which the “combination index (CI)” value in series [5] (setting [18]) is “smaller than 1”. Further, the “effect on cytotoxic activity of dtxA” value in series [6] was “augmented”.

In the case of `C=CC[C@H]1OC(=O)CCNC(=O)[C@H](C)N(C)C(=O)[C@H](C(C)C)N(C)C(=O)[C@H]([C@@H](C)CC)NC(=O)[C@@H]2CCCN2C1=O` [dtxA, destruxin A] (cyclo([dLac(3-vinyl)]PI[NMeV][NMeA][βAla])), the IC50 was greater than 100000 nM in [2] (HCT116/dtxA (unsel.), removed from drug selection for one month, 72 h, mean) and greater than 100000 nM in [2] (setting [16]). The relative resistance in [2] (HCT116/dtxA vs HCT116/wt, month 6 after selection start) is 3.5 -fold; in series [2] (HCT116/dtxA vs HCT116/wt, month 8 after selection start), > 20 -fold; in [2] (setting [19]), >28.6 -fold; in series [3] (setting [20]) it was 21.8 -fold; in series [4] it was 0.3 -fold. Also, the “mean total current (pore forming ability)” value is recorded as -0.2 pA/ms in series [13] and -0.7 pA/ms in [14]. Further, the “percentages of early and/or late apoptotic cells” value in series [10] is “markedly and significantly increased”. The mitochondrial membrane depolarization entry is “only observed in parental cells” in series [11] and “no significant increase” in [12].

With `COc1ccc(CCN(C)CCCC(C#N)(c2ccc(OC)c(OC)c2)C(C)C)cc1OC` (stereo not drawn) [verapamil], the “sensitivity of HCT116/dtxE cells towards dtxE on co-incubation” value in series [15] was “partly restored”.

For the molecule `O=c1[nH]cc(F)c(=O)[nH]1` [5-FU], the IC50 in series [1] (72 h) turned out to be 52000 nM; in [2] (setting [16]), 36400 nM; in series [3] (setting [17]), 38900 nM; in series [4] (72 h) it was 34700 nM.

As to `CC[C@@]1(O)C(=O)OCc2c1cc1n(c2=O)Cc2cc3c(CN(C)C)c(O)ccc3nc2-1` [Topotecan], the IC50 in series [1] (Homo sapiens, HCT-116, 72 h) worked out at 27.4 nM; in series [2] (Homo sapiens, HCT-116, HCT116/dtxA, about one year of selection, 72 h, MTT, mean (± SD)) it was 26 nM; in [3] (Homo sapiens, HCT-116, HCT116/dtxB, about one year of selection, 72 h, MTT, mean (± SD)), 8.2 nM; in series [4] (Homo sapiens, HCT-116, 72 h), 25 nM.

On to `O=C1[O][Pt]2([NH][C@@H]3CCCC[C@H]3[NH]2)[O]C1=O` [Oxaliplatin], for which the IC50 was 800 nM in [1] (72 h), 500 nM in [2] (setting [16]), 1000 nM in series [3] (setting [17]) and 400 nM in series [4] (72 h).

In the case of `CC[C@]1(O)C[C@H]2CN(CCc3c([nH]c4ccccc34)[C@@](C(=O)OC)(c3cc4c(cc3OC)N(C=O)[C@H]3[C@@](O)(C(=O)OC)[C@H](OC(C)=O)[C@]5(CC)C=CCN6CC[C@]43[C@@H]65)C2)C1` [vincristine], the “cytotoxic activity compared to parental cells (reduction)” value in [2] (HCT116/dtxA vs HCT116/wt, 72 h) is “absent”; in series [3] (HCT116/dtxB vs HCT116/wt, 72 h), “very weak”. Besides, in [4] (HCT116/dtxE vs HCT116/wt, 72 h), the “cytotoxic activity compared to parental cells” value is “significantly reduced cytotoxic activity”.

By IC50 is commonly meant the concentration that inhibits the measured activity by half. Lower therefore signals greater potency in that assay.
